Data reported in article PMC4446596, “Functional Diversity of Anti-Lipopolysaccharide Factor Isoforms in Shrimp and Their Characters Related to Antiviral Activity” (Marine Drugs, 2015).
Where a SMILES comes first, the peptide text is derived from it.

Experiments:
WSSV = assay: Antiviral activity detection: WSSV pre-incubated with peptide injected into E. carinicauda, in vivo WSSV copy number; set-up: species or system Exopalaemon carinicauda; conditions: E. carinicauda pleopods, 24 h post injection; WSSV (10^3 copies/μL) pre-incubated 2 h at room temperature with 50 μM peptide, 10 μL injected; VP28 real-time PCR; n = 15; WSSV group 1.21 × 10^5, blank 1.31 × 10^3
Experimental: Exopalaemon carinicauda is being regarded as a good crustacean model animal for WSSV infection experiments. In this study, healthy E. carinicauda with a body length of 5.43 ± 0.30 cm and a body weight of 2.62 ± 0.42 g were used as experimental animals for WSSV infection assay. Animals were acclimatized in the aerated seawater at 25 °C for 1 day before experiments.
In order to learn the effect of synthetic LBD peptides on WSSV infection, WSSV pre-incubated with different peptides was injected into E. carinicauda and the WSSV copy number in the pleopods of E. carinicauda was detected. E. carinicauda was classified into 13 groups and each group contained 18 to 20 individuals. The 13 groups were named as Blank, WSSV, pGFP, LBD1, LBD2, LBD3, LBD4, LBD5, LBD6, LBD7, sLBD2, LBD2-K and LBD4+K, respectively. Synthetic peptides were diluted into 50 μM with PBS (pH 7.4). WSSV was incubated with each peptide solution for 2 h at room temperature with a final concentration 10^3 copies/μL. […] For WSSV group, each shrimp was injected with 10 μL WSSV incubated with PBS (pH 7.4) for 2 h at room temperature. For the other groups (LBD1–LBD7, sLBD2, LBD2-K and LBD4+K), each shrimp was injected with 10 μL of WSSV solution after incubation with corresponding synthetic peptides, respectively. At 24 h post injection (hpi), the pleopods of 15 shrimps in each group were collected and the pleopods from three individuals were put together as one sample. Total DNA of each sample was extracted using the Genomic DNA Kit (Tiangen, China). The viral copy number was measured by detecting the level of VP28 using real-time PCR as described previously.

M. luteus = assay: Inhibition zone test; type: cell-based, Micrococcus luteus; conditions: 20 μL of 64 μM peptide in PBS pH 7.4 on 6 mm filter paper, solid LB plate, 37 °C, 24 h
Experimental: (§1) Gram-negative bacteria, including Escherichia coli and Aeromonas hydrophila, and Gram-positive bacteria, including Micrococcus luteus and Bacillus simplex were used for antibacterial analyses. The strains were incubated in fresh LB medium overnight at 37 °C for E. coli, M. luteus and 28 °C for A. hydrophila, B. simplex.
(§2) The antibacterial activities of LBD peptides were examined by inhibition zone test. The overnight cultures of bacteria were diluted 100 times and cultured in LB medium at 37 °C (E. coli and M. luteus) or 28 °C (A. hydrophila and B. simplex) for 6 h. These cultures were then diluted 100 times with LB medium separately, and 200 μL solutions from each diluted cultures was taken out and spread on the solid LB medium plate uniformly. Sterile filter paper with a diameter of 6 mm was put on the surface of solid LB medium gently. Twenty microliters of 64 μM peptide solution dissolved in PBS (pH 7.4) was added to the center of filter paper with a diameter of 6 mm. Twenty microliters PBS and 20 μL of 64 μM pGFP peptide were used as negative controls. […] ampicillin solutions was used as the positive control for E. coli, M. luteus and B. simplex culture, and 50 μM kanamycin sulfates was used as the positive control for A. hydrophila culture. The plates were cultured at 37 °C (E. coli and M. luteus) or 28 °C (A. hydrophila and B. simplex) for 24 h.

E. coli = assay: Inhibition zone test; type: cell-based, Escherichia coli; conditions: 20 μL of 64 μM peptide in PBS pH 7.4 on 6 mm filter paper, solid LB plate, 37 °C, 24 h
Experimental: as §1, §2

A. hydrophila = assay: Inhibition zone test; type: cell-based, Aeromonas hydrophila; conditions: 20 μL of 64 μM peptide in PBS pH 7.4 on 6 mm filter paper, solid LB plate, 28 °C, 24 h
Experimental: as §1, §2

For `CSCC[C@@H]1NC(=O)[C@H](CCCNC(=N)N)NC(=O)CNC(=O)[C@H](CCCCN)NC(=O)[C@H](Cc2ccccc2)NC(=O)[C@H](Cc2ccc(O)cc2)NC(=O)[C@H](CC(C)C)NC(=O)[C@H](CCC(=O)O)NC(=O)[C@H](Cc2ccccc2)NC(=O)[C@H](CO)NC(=O)[C@H](CCCCN)NC(=O)[C@H](C(C)C)NC(=O)[C@H]([C@@H](C)O)NC(=O)[C@@H]2CCCN2C(=O)[C@H]([C@@H](C)O)NC(=O)[C@H](C(C)C)NC(=O)[C@H](CO)NC(=O)[C@H](Cc2ccc(O)cc2)NC(=O)[C@H]([C@@H](C)O)NC(=O)[C@@H](NC(=O)[C@H](CCC(N)=O)NC(C)=O)CSSC[C@@H](C(=O)N2CCC[C@H]2C(N)=O)NC(=O)[C@H](CO)NC1=O` [LBD1] (HELM PEPTIDE1{[ac].Q.C.T.Y.S.V.T.P.T.V.K.S.F.E.L.Y.F.K.G.R.M.S.C.P.[am]}$PEPTIDE1,PEPTIDE1,3:R3-24:R3$$$V2.0), the WSSV copy number (WSSV) was 4.36 × 10^3 copies/ng DNA, the Inhibition zone (M. luteus) was “Obvious inhibition zones” and the Inhibition zone (E. coli) was “apparent inhibition zones”.
In the case of `CC[C@H](C)[C@@H]1NC(=O)[C@H](Cc2ccccc2)NC(=O)[C@H](Cc2ccc(O)cc2)NC(=O)[C@H](CC(C)C)NC(=O)[C@H](CCC(=O)O)NC(=O)[C@H](Cc2ccccc2)NC(=O)CNC(=O)[C@H](CCC(N)=O)NC(=O)[C@H]([C@@H](C)CC)NC(=O)[C@H](CC(=O)O)NC(=O)[C@@H]2CCCN2C(=O)[C@H](CCCCN)NC(=O)[C@H](C(C)C)NC(=O)[C@H](CO)NC(=O)[C@H](Cc2ccc(O)cc2)NC(=O)[C@H](CO)NC(=O)[C@@H](NC(=O)[C@H](CO)NC(C)=O)CSSC[C@@H](C(=O)N2CCC[C@H]2C(N)=O)NC(=O)[C@H]([C@@H](C)O)NC(=O)[C@H](C(C)C)NC(=O)[C@H](CO)NC(=O)CNC1=O` [LBD6] (HELM PEPTIDE1{[ac].S.C.S.Y.S.V.K.P.D.I.Q.G.F.E.L.Y.F.I.G.S.V.T.C.P.[am]}$PEPTIDE1,PEPTIDE1,3:R3-24:R3$$$V2.0), the WSSV copy number (WSSV) was 1.55 × 10^5 copies/ng DNA and the Inhibition zone (E. coli) was “apparent inhibition zones”.
In the case of “Ac-FKRWQLYFRG-NH2 [sLBD2, a part (ten amino acid residues) of LBD]”, the WSSV copy number (WSSV) was 4.04 × 10^3 copies/ng DNA.
For `CC[C@H](C)[C@@H]1NC(=O)[C@H](Cc2ccc(O)cc2)NC(=O)[C@@H]2CCCN2C(=O)[C@H](CCCCN)NC(=O)[C@H](C(C)C)NC(=O)[C@H]([C@@H](C)O)NC(=O)[C@H](Cc2ccccc2)NC(=O)[C@H](CCCCN)NC(=O)[C@@H](NC(=O)[C@H](CCC(=O)O)NC(C)=O)CSSC[C@@H](C(=O)N2CCC[C@H]2C(N)=O)NC(=O)[C@H](Cc2c[nH]c3ccccc23)NC(=O)[C@H](CCSC)NC(=O)[C@H](CCCNC(=N)N)NC(=O)CNC(=O)[C@H](CCCCN)NC(=O)[C@H](Cc2ccc(O)cc2)NC(=O)[C@H](Cc2ccc(O)cc2)NC(=O)[C@H](CC(C)C)NC(=O)[C@H](CCC(N)=O)NC(=O)[C@H](Cc2ccccc2)NC(=O)[C@H](CCCNC(=N)N)NC(=O)[C@H](CCCCN)NC1=O` [LBD7] (HELM PEPTIDE1{[ac].E.C.K.F.T.V.K.P.Y.I.K.R.F.Q.L.Y.Y.K.G.R.M.W.C.P.[am]}$PEPTIDE1,PEPTIDE1,3:R3-24:R3$$$V2.0), the WSSV copy number (WSSV) was 5.07 × 10^3 copies/ng DNA, the Inhibition zone (E. coli) was “apparent inhibition zones” and the Inhibition zone (A. hydrophila) was “exhibited inhibition zones”.
In the case of `CC(=O)N[C@@H](Cc1ccc(O)cc1)C(=O)N[C@H]1CSSC[C@@H](C(=O)N2CCC[C@H]2C(N)=O)NC(=O)[C@H](CCCCN)NC(=O)[C@H](CC(C)C)NC(=O)[C@H](CCC(=O)O)NC(=O)[C@H](C)NC(=O)[C@H](CCCNC(=N)N)NC(=O)[C@H](Cc2ccc(O)cc2)NC(=O)[C@H](Cc2c[nH]cn2)NC(=O)[C@H](C(C)C)NC(=O)[C@H](CCC(=O)O)NC(=O)[C@H](CC(C)C)NC(=O)[C@H](CCCCN)NC(=O)[C@H](CCCCN)NC(=O)[C@H](CC(C)C)NC(=O)[C@H](Cc2ccc(O)cc2)NC(=O)[C@@H]2CCCN2C(=O)[C@H](CO)NC(=O)[C@H](CCCNC(=N)N)NC(=O)[C@H](CO)NC(=O)[C@H](CC(C)C)NC(=O)[C@H](CC(C)C)NC1=O` [LBD5] (HELM PEPTIDE1{[ac].Y.C.L.L.S.R.S.P.Y.L.K.K.L.E.V.H.Y.R.A.E.L.K.C.P.[am]}$PEPTIDE1,PEPTIDE1,3:R3-24:R3$$$V2.0), the WSSV copy number (WSSV) was 2.07 × 10^3 copies/ng DNA.
With `CSCC[C@@H]1NC(=O)[C@H](CCCNC(=N)N)NC(=O)CNC(=O)[C@H](CCCNC(=N)N)NC(=O)[C@H](Cc2ccccc2)NC(=O)[C@H](Cc2ccc(O)cc2)NC(=O)[C@H](CC(C)C)NC(=O)[C@H](CCC(N)=O)NC(=O)[C@H](Cc2c[nH]c3ccccc23)NC(=O)[C@H](CCCNC(=N)N)NC(=O)[C@H](CCCCN)NC(=O)[C@H](Cc2ccccc2)NC(=O)[C@H](CCCCN)NC(=O)[C@@H]2CCCN2C(=O)[C@H]([C@@H](C)O)NC(=O)[C@H](C(C)C)NC(=O)[C@H](CC(N)=O)NC(=O)[C@H](Cc2ccccc2)NC(=O)[C@H](CO)NC(=O)[C@@H](NC(=O)[C@H](Cc2ccc(O)cc2)NC(C)=O)CSSC[C@@H](C(=O)N2CCC[C@H]2C(N)=O)NC(=O)[C@H](Cc2c[nH]c3ccccc23)NC1=O` [LBD2] (HELM PEPTIDE1{[ac].Y.C.S.F.N.V.T.P.K.F.K.R.W.Q.L.Y.F.R.G.R.M.W.C.P.[am]}$PEPTIDE1,PEPTIDE1,3:R3-24:R3$$$V2.0) the WSSV copy number (WSSV) was 1.40 × 10^3 copies/ng DNA, the Inhibition zone (M. luteus) was “Obvious inhibition zones” and the Inhibition zone (A. hydrophila) was “exhibited inhibition zones”.
With `CSCC[C@@H]1NC(=O)[C@H](CCCNC(=N)N)NC(=O)CNC(=O)[C@H](CC(N)=O)NC(=O)[C@H](Cc2ccccc2)NC(=O)[C@H](Cc2ccc(O)cc2)NC(=O)[C@H](CC(C)C)NC(=O)[C@H](CCC(=O)O)NC(=O)[C@H](Cc2c[nH]c3ccccc23)NC(=O)[C@H](CCCNC(=N)N)NC(=O)[C@H](Cc2ccc(O)cc2)NC(=O)[C@H](Cc2ccccc2)NC(=O)[C@H](CO)NC(=O)[C@@H]2CCCN2C(=O)[C@H](CCCNC(=N)N)NC(=O)[C@H](CCC(N)=O)NC(=O)[C@H](CO)NC(=O)[C@H](Cc2ccc(O)cc2)NC(=O)[C@H](CCCNC(=N)N)NC(=O)[C@@H](NC(=O)[C@H](CO)NC(C)=O)CSSC[C@@H](C(=O)N2CCC[C@H]2C(N)=O)NC(=O)[C@H](Cc2c[nH]c3ccccc23)NC1=O` [LBD4] (HELM PEPTIDE1{[ac].S.C.R.Y.S.Q.R.P.S.F.Y.R.W.E.L.Y.F.N.G.R.M.W.C.P.[am]}$PEPTIDE1,PEPTIDE1,3:R3-24:R3$$$V2.0) the WSSV copy number (WSSV) was 7.24 × 10^4 copies/ng DNA and the Inhibition zone (E. coli) was “apparent inhibition zones”.
For “Ac-Y(CSFNVTPKFQRWQLYFRGRMWC)P-NH2 (disulfide) [LBD2-K, same as LBD2 except for the replacement of a lysine residue by a glutamine residue]”, the WSSV copy number (WSSV) was 5.14 × 10^4 copies/ng DNA.
For “Ac-S(CRYSQRPSFKRWELYFNGRMWC)P-NH2 (disulfide) [LBD4+K, same as LBD4 except for the replacement of a tyrosine residue by a lysine residue]”, the WSSV copy number (WSSV) was 3.40 × 10^3 copies/ng DNA.
In the case of `CC[C@H](C)[C@@H]1NC(=O)[C@H](Cc2ccccc2)NC(=O)[C@H](Cc2ccc(O)cc2)NC(=O)[C@H](CC(C)C)NC(=O)[C@H](CCC(N)=O)NC(=O)[C@H](Cc2c[nH]c3ccccc23)NC(=O)[C@H](CCCNC(=N)N)NC(=O)[C@H](CCC(N)=O)NC(=O)[C@H](Cc2ccccc2)NC(=O)[C@H]([C@@H](C)O)NC(=O)[C@@H]2CCCN2C(=O)[C@H](CCCCN)NC(=O)[C@H](C(C)C)NC(=O)[C@H](CO)NC(=O)[C@H](Cc2ccc(O)cc2)NC(=O)[C@H](C(C)C)NC(=O)[C@@H](NC(=O)[C@H](Cc2ccc(O)cc2)NC(C)=O)CSSC[C@@H](C(=O)N2CCC[C@H]2C(N)=O)NC(=O)[C@H](Cc2c[nH]c3ccccc23)NC(=O)[C@H](CCSC)NC(=O)[C@H](CO)NC(=O)CNC1=O` [LBD3] (HELM PEPTIDE1{[ac].Y.C.V.Y.S.V.K.P.T.F.Q.R.W.Q.L.Y.F.I.G.S.M.W.C.P.[am]}$PEPTIDE1,PEPTIDE1,3:R3-24:R3$$$V2.0), the WSSV copy number (WSSV) was 1.19 × 10^5 copies/ng DNA and the Inhibition zone (M. luteus) was “Obvious inhibition zones”.
